Assay results as given in PMC11019550, “Potent Inhibition of E. coli DXP Synthase by a gem-Diaryl Bisubstrate Analog” (ACS Infectious Diseases, 2024).

Tests used:
wildtype EcDXPS = biological target: T1, wildtype EcDXPS (Escherichia coli, UniProt P77488); test: IC50 determination for 8 on wildtype EcDXPS (DXPS-IspC coupled assay); format: biochemical
T1 construct: made in house
Description: EcDXPS and IspC were preincubated with inhibitor for 10 min at 25 °C in assay reaction buffer (100 mM HEPES pH 8, 2 mM MgCl2, 5 mM NaCl, 1 mM ThDP, and 200 μM NADPH). Enzyme concentrations for variants were as follows: 200 nM DXPS (wildtype EcDXPS) and 4 μM IspC; 400 nM DXPS (R99A and R478A EcDXPS) and 6 μM IspC. The reaction was initiated by the addition of substrates at final concentrations of 2 × Km pyruvate and 10 × KmD-GAP. NADPH consumption was monitored at 340 nm for 10 min at 25 °C. The initial rate of NADPH consumption was used to determine the initial rate of DXP formation catalyzed by DXPS. Experiments were performed in triplicate and error bars represented standard error.

WT EcDXPS = biological target: T2, WT EcDXPS (Escherichia coli, UniProt P77488); test: Time-dependent inhibition, reaction progress curves on WT EcDXPS; format: biochemical; conditions: 8 at 400 or 800 nM, 10 at 1 or 100 μM
T2 construct: made in house
T2 sequence (P77488 whole entry): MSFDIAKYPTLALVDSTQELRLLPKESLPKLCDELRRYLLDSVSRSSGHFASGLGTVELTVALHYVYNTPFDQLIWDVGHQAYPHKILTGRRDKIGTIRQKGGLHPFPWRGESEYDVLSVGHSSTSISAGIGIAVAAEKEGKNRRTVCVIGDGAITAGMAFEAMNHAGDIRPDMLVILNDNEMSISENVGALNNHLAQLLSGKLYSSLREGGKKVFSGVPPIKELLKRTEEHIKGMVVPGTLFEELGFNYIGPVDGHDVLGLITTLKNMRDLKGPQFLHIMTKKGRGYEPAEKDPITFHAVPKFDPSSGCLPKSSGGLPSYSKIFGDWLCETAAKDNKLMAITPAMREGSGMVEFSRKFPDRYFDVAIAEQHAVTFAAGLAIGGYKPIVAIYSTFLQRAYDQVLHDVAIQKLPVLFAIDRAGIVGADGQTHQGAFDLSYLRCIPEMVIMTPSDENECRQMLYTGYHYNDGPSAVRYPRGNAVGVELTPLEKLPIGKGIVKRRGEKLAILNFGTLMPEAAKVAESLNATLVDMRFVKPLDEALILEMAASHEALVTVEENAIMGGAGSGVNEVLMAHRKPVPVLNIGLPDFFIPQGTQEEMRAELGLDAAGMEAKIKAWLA
Description: To determine if 8 is also a slow-onset inhibitor of DXPS, reaction progress was monitored upon simultaneous addition of substrates (pyruvate and D-GAP) in the presence or absence of inhibitor. In the absence of inhibitor, the reaction progress curve is linear. […] To assess the importance of the carboxyl group of 8, we evaluated descarboxy analog 10 in the same manner.
EcDXPS (100 nM) and IspC (2 μM) were preincubated in enzyme reaction buffer (100 mM HEPES pH 8, 2 mM MgCl2, 5 mM NaCl, 1 mM ThDP, and 200 μM NADPH) with 250 μM D-GAP for 10 min at 25 °C. The reaction was initiated by the addition of pyruvate (1 mM) and inhibitor (400 nM and 800 nM 8; 1 μM and 100 μM 10). The reaction mixture was incubated at 25 °C, and the absorbance of NADPH at 340 nm was monitored. The change in the absorbance of NADPH over time was used to calculate [DXP] (μM) produced over time. Experiments were performed in triplicate.

EcDXPS = biological target: T3, EcDXPS (Escherichia coli, UniProt P77488); test: DXPS quaternary structure by native PAGE and analytical gel filtration
T3 construct: made in house
T3 sequence (P77488 whole entry): as above
Description: EcDXPS (20 μM) in buffer (2 mM MgCl2, 5 mM NaCl, 1 mM ThDP, 100 mM HEPES pH 8) was preincubated with 8 ([…]) or no inhibitor for 30 min at 25 °C. Samples were then diluted 2-fold with 2× loading dye (100 mM Tris HCl pH 8, 20% glycerol, 200 mM dithiothreitol (DTT), 0.01% bromophenol blue). Samples (15 μL) were then loaded on a 7.5% PAGE gel. Gel electrophoresis was conducted at 4 °C for 30 min at 120 V, followed by 3 h at 150 V. Protein bands were stained with Protostain Blue. Experiments were performed in triplicate.
Analytical gel filtration was performed on an AKTA-GO FPLC system held at 4 °C fitted with a Cytiva Superdex 200 Increase 5/150 GL column. A 200 μL solution containing 29 μM EcDXPS in 25 mM HEPES, pH 8, 100 mM NaCl, 1 mM MgCl2, 1% glycerol, 10 μM ThDP, and 29 μM 8 or no inhibitor was centrifuged at 13,000 rpm for 10 min to remove particulates. The resulting supernatant was loaded into a 10 μL loop attached to the FPLC via gastight syringes. […] DXPS was analyzed by isocratic elution from the column at a flow of 0.15 mL/min with 1.5 column volumes (4.5 mL). The dimer/tetramer ratio was calculated from the peak area (mL mAu) of the dimer (1.7 mL retention) peak divided by the peak area (mL mAu) of the tetramer (1.4 mL retention) peak. […]

T1 sequence (P77488 whole entry): as above

SMILES: CC(=O)P(=O)(O)OCCc1cn(C(Cc2ccccc2)(Cc2ccccc2)C(=O)O)nn1 [Compound 8]
- IC50 (wildtype EcDXPS): ≤ 72 nM
- concentration required for 21% inhibition of DXPS (wildtype EcDXPS; 2 × Km pyruvate): less than 15.6 nM
- time dependence of inhibition (progress curve for DXP formation) (WT EcDXPS): time dependence of inhibition
- effect on dimer/tetramer ratio (analytical gel filtration) (EcDXPS; 29 μM EcDXPS, 29 μM 8): small but statistically significant decrease in the dimer/tetramer ratio
- effect on EcDXPS oligomeric state (native PAGE) (EcDXPS; EcDXPS 20 μM, incubation with 8): induce the formation of higher-order enzyme oligomers
